Reference: patent publication US20230085307A1, “PYRIDAZINONE COMPOUND AND HERBICIDE” (NISSAN CHEMICAL CORPORATION, priority 2019, published 2023)

The molecules below were run on barnyard grass (assay: Test Example 3: herbicidal effect by foliage application, Wagner pot (Table 18, symbol H)). Settings: 320 g/ha.
Type: in vivo, barnyard grass (Echinochloa crus-galli)
Procedure, shortened: (§1)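 Plants were sown in alluvial soil held under 0.1–0.5 cm standing water and grown 14 days in a greenhouse at 25–30 °C. An emulsifiable formulation, water-diluted to the set dose, was then sprayed onto the foliage, and effects were scored three weeks later using previously defined criteria.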
With CCCC(=O)Oc1c(C)nn(C)c(=O)c1-c1c(-c2ccccc2OCC)sc2c(Cl)cccc12 [4-026] the “herbicidal effect on barnyard grass (H)” value was 5 (Herbicidal rate of 90% or more (almost completely withered)).
With CCCC(=O)Oc1c(C)nn(C)c(=O)c1-c1c(-c2ccc(C#N)cc2)sc2c(Cl)cccc12 [4-032] the “herbicidal effect on barnyard grass (H)” value was 4 (Herbicidal rate of 70% or more and less than 90%).

Each molecule was assayed on green foxtail (assay: Test Example 4: herbicidal effect by soil treatment (Table 19, symbol G)). Settings: amount of applied herbicide 320 g/ha.
Type: in vivo, green foxtail (Setaria viridis)
Procedure, shortened: (§2)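 In this soil treatment, the formulated compound reached the seeds only through the soil: seeds were buried about 1.5 cm deep in sterilized diluvial soil, then the diluted emulsion was sprayed over the surface. After three weeks at 25° C. to 30° C. in a greenhouse, effects were graded on criteria from an earlier test.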
In the case of CCCC(=O)Oc1c(C)nn(C)c(=O)c1-c1c(-c2ccccc2OCC)sc2c(Cl)cccc12 [4-026], the “Herbicidal effect by soil treatment, G: green foxtail” value is reported as 3 (Herbicidal rate of 40% or more and less than 70%).
In the case of CCCC(=O)Oc1c(C)nn(C)c(=O)c1-c1c(-c2ccc(C#N)cc2)sc2c(Cl)cccc12 [4-032], the “Herbicidal effect by soil treatment, G: green foxtail” value is reported as 0 (Herbicidal rate of 5% or less (almost no effect)).

The molecules below were run on late watergrass (assay: Test Example 1: herbicidal activity, application before weed generation under submerged conditions (Table 16, symbol A)). Settings: amount of applied herbicide 320 g/ha.
Type: in vivo, late watergrass (Echinochloa oryzicola)
Procedure, shortened: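 Submerged Wagner pots (alluvial soil, 4 cm water) sown with weed seeds and planted with 2.5-leaf rice seedlings; emulsifiable concentrate diluted in water applied to water surface on sowing day. Held in greenhouse at 25-30 °C; injury scored 0-5 by herbicidal rate after three weeks.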
For CCCC(=O)Oc1c(C)nn(C)c(=O)c1-c1c(-c2ccccc2OCC)sc2c(Cl)cccc12 [4-026], the “Herbicidal effect, A: late watergrass” value was 5 (Herbicidal rate of 90% or more (almost completely withered)).
In the case of CCCC(=O)Oc1c(C)nn(C)c(=O)c1-c1c(-c2ccc(C#N)cc2)sc2c(Cl)cccc12 [4-032], the “Herbicidal effect, A: late watergrass” value is reported as 0 (Herbicidal rate of 5% or less (almost no effect)).

The molecules below were run on southern crabgrass (assay: Test Example 4: herbicidal effect by soil treatment (Table 19, symbol F)). Settings: amount of applied herbicide 320 g/ha.
Type: in vivo, southern crabgrass (Digitaria ciliaris)
Procedure, shortened: as §2
CCCC(=O)Oc1c(C)nn(C)c(=O)c1-c1c(-c2ccccc2OCC)sc2c(Cl)cccc12 [4-026] was tested, and the “Herbicidal effect by soil treatment, F: southern crabgrass” value was 3 (Herbicidal rate of 40% or more and less than 70%).
For CCCC(=O)Oc1c(C)nn(C)c(=O)c1-c1c(-c2ccc(C#N)cc2)sc2c(Cl)cccc12 [4-032], the “Herbicidal effect by soil treatment, F: southern crabgrass” value was 0 (Herbicidal rate of 5% or less (almost no effect)).

What follows are molecules tested on barnyard grass (assay: Test Example 4: herbicidal effect by soil treatment (Table 19, symbol H)). Settings: amount of applied herbicide 320 g/ha.
Type: in vivo, barnyard grass (Echinochloa crus-galli)
Procedure, shortened: as §2
For CCCC(=O)Oc1c(C)nn(C)c(=O)c1-c1c(-c2ccccc2OCC)sc2c(Cl)cccc12 [4-026], the “Herbicidal effect by soil treatment, H: barnyard grass” value was 3 (Herbicidal rate of 40% or more and less than 70%).
In the case of CCCC(=O)Oc1c(C)nn(C)c(=O)c1-c1c(-c2ccc(C#N)cc2)sc2c(Cl)cccc12 [4-032], the “Herbicidal effect by soil treatment, H: barnyard grass” value is reported as 0 (Herbicidal rate of 5% or less (almost no effect)).

These molecules were tested on oval-leafed pondweed (assay: Test Example 2: herbicidal activity, application during weed generation under submerged conditions (Table 17, symbol C)). Settings: AAH 320 g/ha; application during weed generation, submerged conditions.
Type: in vivo, oval-leafed pondweed (Monochoria vaginalis)
Procedure, shortened: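 Mixed weed seedlings in alluvial soil under a 4 cm water layer, greenhouse-grown at 25–30° C. Compound given as a diluted emulsion into the floodwater at the 1–2 leaf stage; response graded after three weeks.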
For CCCC(=O)Oc1c(C)nn(C)c(=O)c1-c1c(-c2ccccc2OCC)sc2c(Cl)cccc12 [4-026], the “herbicidal effect rating, C: oval-leafed pondweed” value was 2 (Herbicidal rate of 20% or more and less than 40%).
In the case of CCCC(=O)Oc1c(C)nn(C)c(=O)c1-c1c(-c2ccc(C#N)cc2)sc2c(Cl)cccc12 [4-032], the “herbicidal effect rating, C: oval-leafed pondweed” value is reported as 0 (Herbicidal rate of 5% or less (almost no effect)).

The molecules below were run on green foxtail (assay: Test Example 5: herbicidal effect by foliage application, plastic box (Table 20, symbol G)). Settings: 320 g/ha, foliage application after 14-day growth, evaluated three weeks after application.
Type: in vivo, green foxtail (Setaria viridis)
Procedure, shortened: (§3)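 Plants were sown into sterilized diluvial soil under about 1.5 cm cover and kept in a greenhouse at 25° C. to 30° C. Fourteen days on, foliage received an even spray of the diluted emulsion. Herbicidal or crop effect was judged three weeks afterwards.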
In the case of CCCC(=O)Oc1c(C)nn(C)c(=O)c1-c1c(-c2ccccc2OCC)sc2c(Cl)cccc12 [4-026], the “herbicidal effect on G: green foxtail (evaluation grade 0-5)” value is reported as 5 (Herbicidal rate of 90% or more (almost completely withered)).
In the case of CCCC(=O)Oc1c(C)nn(C)c(=O)c1-c1c(-c2ccc(C#N)cc2)sc2c(Cl)cccc12 [4-032], the “herbicidal effect on G: green foxtail (evaluation grade 0-5)” value is reported as 0 (Herbicidal rate of 5% or less (almost no effect)).

What follows are molecules tested on redroot pigweed (assay: Test Example 5: herbicidal effect by foliage application, plastic box (Table 20, symbol N)). Settings: 320 g/ha, foliage application after 14-day growth, evaluated three weeks after application.
Type: in vivo, redroot pigweed (Amaranthus retroflexus)
Procedure, shortened: as §3
CCCC(=O)Oc1c(C)nn(C)c(=O)c1-c1c(-c2ccccc2OCC)sc2c(Cl)cccc12 [4-026] was tested, and the “herbicidal effect on N: redroot pigweed (evaluation grade 0-5)” value was 5 (Herbicidal rate of 90% or more (almost completely withered)).
With CCCC(=O)Oc1c(C)nn(C)c(=O)c1-c1c(-c2ccc(C#N)cc2)sc2c(Cl)cccc12 [4-032] the “herbicidal effect on N: redroot pigweed (evaluation grade 0-5)” value was 5 (Herbicidal rate of 90% or more (almost completely withered)).

These molecules were tested on Chinese sprangletop (assay: Test Example 3: herbicidal effect by foliage application, Wagner pot (Table 18, symbol D)). Settings: 320 g/ha.
Type: in vivo, chinese sprangletop (Leptochloa chinensis)
Procedure, shortened: as §1
In the case of CCCC(=O)Oc1c(C)nn(C)c(=O)c1-c1c(-c2ccccc2OCC)sc2c(Cl)cccc12 [4-026], the “herbicidal effect on Chinese sprangletop (D)” value is reported as 5 (Herbicidal rate of 90% or more (almost completely withered)).
CCCC(=O)Oc1c(C)nn(C)c(=O)c1-c1c(-c2ccc(C#N)cc2)sc2c(Cl)cccc12 [4-032] was tested, and the “herbicidal effect on Chinese sprangletop (D)” value was 3 (Herbicidal rate of 40% or more and less than 70%).

What follows are molecules tested on redroot pigweed (assay: Test Example 4: herbicidal effect by soil treatment (Table 19, symbol N)). Settings: amount of applied herbicide 320 g/ha.
Type: in vivo, redroot pigweed (Amaranthus retroflexus)
Procedure, shortened: as §2
With CCCC(=O)Oc1c(C)nn(C)c(=O)c1-c1c(-c2ccccc2OCC)sc2c(Cl)cccc12 [4-026] the “Herbicidal effect by soil treatment, N: redroot pigweed” value was 2 (Herbicidal rate of 20% or more and less than 40%).
CCCC(=O)Oc1c(C)nn(C)c(=O)c1-c1c(-c2ccc(C#N)cc2)sc2c(Cl)cccc12 [4-032] was tested, and the “Herbicidal effect by soil treatment, N: redroot pigweed” value was 3 (Herbicidal rate of 40% or more and less than 70%).

What follows are molecules tested on chickweed (assay: Test Example 4: herbicidal effect by soil treatment (Table 19, symbol P)). Settings: amount of applied herbicide 320 g/ha.
Type: in vivo, common chickweed (Stellaria media)
Procedure, shortened: as §2
With CCCC(=O)Oc1c(C)nn(C)c(=O)c1-c1c(-c2ccccc2OCC)sc2c(Cl)cccc12 [4-026] the “Herbicidal effect by soil treatment, P: chickweed” value was 1 (Herbicidal rate of 5% or more and less than 20%).
With CCCC(=O)Oc1c(C)nn(C)c(=O)c1-c1c(-c2ccc(C#N)cc2)sc2c(Cl)cccc12 [4-032] the “Herbicidal effect by soil treatment, P: chickweed” value was 3 (Herbicidal rate of 40% or more and less than 70%).

What follows are molecules tested on blackgrass (assay: Test Example 4: herbicidal effect by soil treatment (Table 19, symbol J)). Settings: amount of applied herbicide 320 g/ha.
Type: in vivo, blackgrass (Alopecurus myosuroides)
Procedure, shortened: as §2
CCCC(=O)Oc1c(C)nn(C)c(=O)c1-c1c(-c2ccccc2OCC)sc2c(Cl)cccc12 [4-026] was tested, and the “Herbicidal effect by soil treatment, J: blackgrass” value was 0 (Herbicidal rate of 5% or less (almost no effect)).
With CCCC(=O)Oc1c(C)nn(C)c(=O)c1-c1c(-c2ccc(C#N)cc2)sc2c(Cl)cccc12 [4-032] the “Herbicidal effect by soil treatment, J: blackgrass” value was 0 (Herbicidal rate of 5% or less (almost no effect)).

The molecules below were run on southern crabgrass (assay: Test Example 5: herbicidal effect by foliage application, plastic box (Table 20, symbol F)). Settings: 320 g/ha, foliage application after 14-day growth, evaluated three weeks after application.
Type: in vivo, southern crabgrass (Digitaria ciliaris)
Procedure, shortened: as §3
With CCCC(=O)Oc1c(C)nn(C)c(=O)c1-c1c(-c2ccccc2OCC)sc2c(Cl)cccc12 [4-026] the “herbicidal effect on F: southern crabgrass (evaluation grade 0-5)” value was 3 (Herbicidal rate of 40% or more and less than 70%).
In the case of CCCC(=O)Oc1c(C)nn(C)c(=O)c1-c1c(-c2ccc(C#N)cc2)sc2c(Cl)cccc12 [4-032], the “herbicidal effect on F: southern crabgrass (evaluation grade 0-5)” value is reported as 0 (Herbicidal rate of 5% or less (almost no effect)).

These molecules were tested on windgrass (assay: Test Example 4: herbicidal effect by soil treatment (Table 19, symbol L)). Settings: amount of applied herbicide 320 g/ha.
Type: in vivo, windgrass (Apera spica-venti)
Procedure, shortened: as §2
CCCC(=O)Oc1c(C)nn(C)c(=O)c1-c1c(-c2ccccc2OCC)sc2c(Cl)cccc12 [4-026] was tested, and the “Herbicidal effect by soil treatment, L: windgrass” value was 0 (Herbicidal rate of 5% or less (almost no effect)).
For CCCC(=O)Oc1c(C)nn(C)c(=O)c1-c1c(-c2ccc(C#N)cc2)sc2c(Cl)cccc12 [4-032], the “Herbicidal effect by soil treatment, L: windgrass” value was 0 (Herbicidal rate of 5% or less (almost no effect)).

What follows are molecules tested on persian speedwell (assay: Test Example 5: herbicidal effect by foliage application, plastic box (Table 20, symbol R)). Settings: 320 g/ha, foliage application after 14-day growth, evaluated three weeks after application.
Type: in vivo, Persian speedwell (Veronica persica)
Procedure, shortened: as §3
In the case of CCCC(=O)Oc1c(C)nn(C)c(=O)c1-c1c(-c2ccccc2OCC)sc2c(Cl)cccc12 [4-026], the “herbicidal effect on R: persian speedwell (evaluation grade 0-5)” value is reported as 4 (Herbicidal rate of 70% or more and less than 90%).
In the case of CCCC(=O)Oc1c(C)nn(C)c(=O)c1-c1c(-c2ccc(C#N)cc2)sc2c(Cl)cccc12 [4-032], the “herbicidal effect on R: persian speedwell (evaluation grade 0-5)” value is reported as 5 (Herbicidal rate of 90% or more (almost completely withered)).

The molecules below were run on blackgrass (assay: Test Example 5: herbicidal effect by foliage application, plastic box (Table 20, symbol J)). Settings: 320 g/ha, foliage application after 14-day growth, evaluated three weeks after application.
Type: in vivo, blackgrass (Alopecurus myosuroides)
Procedure, shortened: as §3
With CCCC(=O)Oc1c(C)nn(C)c(=O)c1-c1c(-c2ccccc2OCC)sc2c(Cl)cccc12 [4-026] the “herbicidal effect on J: blackgrass (evaluation grade 0-5)” value was 3 (Herbicidal rate of 40% or more and less than 70%).
CCCC(=O)Oc1c(C)nn(C)c(=O)c1-c1c(-c2ccc(C#N)cc2)sc2c(Cl)cccc12 [4-032] was tested, and the “herbicidal effect on J: blackgrass (evaluation grade 0-5)” value was 0 (Herbicidal rate of 5% or less (almost no effect)).
